The target in test [1] is T1, IgE-Tb binding to sFcεR1α-Y131A-AF488 (Homo sapiens, UniProt P01854, N146Q/N252Q).
T1 construct: fused on or other part: LanthaScreen amine-reactive terbium chelate label on IgE-Fc (about 4 Tb per IgE-Fc)
As to the kind of experiment: In vitro FRET assay of IgE-Tb binding to sFcεR1α receptor (protocol for examples 9 and 10, 18 hours incubation). The settings on record: examples 9 and 10: compound incubated 30 minutes with IgE-Tb before sFcεR1α-Y131A-AF488; incubated 18 hours at room temperature; read-out: FRET IC50 range. The protocol:
In vitro Biochemical Assay:
Protocol for preparation of IgE-Tb reagent
86 nmoles of IgE-Fc(N265Q, N371Q) (Young et al., 1995) at 172 μM in 100 mM NaHCO3, pH 9.5 was added to 1 mg of LanthaScreen™ Amine Reactive Tb Chelate (ThermoFisher catalogue number PV3583) and incubated for 16 hours at 20° C. The material was then buffer exchanged into Phosphate Buffered Saline (being, 137 mM NaCl, 2.7 mM KCl, 10 mM Na2HPO4, 1.8 mM K2HPO4, pH 7.4) and the material quantified and the degree of Tb conjugation determined by measuring the absorption at 280 nm and 343 nm.
(§1) The integrity of the conjugated material was determined by analytical size exclusion chromatography on a 5200 HR 10×300 column (GE Healthcare). […]
175 nmoles of protein was added to 1 mg of Alexa Fluor™ 488 hydrazide (Invitrogen) and incubated for 16 hours at 22° C. […] The protein was buffer exchanged into Phosphate Buffered Saline (being, 137 mM NaCl, 2.7 mM KCl, 10 mM Na2HPO4, 1.8 mM K2HPO4, pH 7.4) and the material quantified and the degree of Alexa Fluor™ 488 conjugation determined by measuring the absorption at 280 nm and 495 nm.
as §1
The aim was to measure binding of IgE-Tb to receptor, and the inhibition thereof by compounds, using an in vitro Fluorescence Resonance Energy Transfer (FRET) Assay. […]

In test [2] the target is T2, IgE-Tb binding to soluble IgE receptor FcεRIα-Y131A-AF488 (Homo sapiens, UniProt P0DOX4, N265Q/N371Q).
T2 construct: 86 nmoles of IgE-Fc(N265Q, N371Q) (Young et al., 1995)
As to the kind of experiment: In vitro FRET assay of IgE-Tb binding to FcεRIα receptor (protocol for most examples, 2 hours incubation). The settings on record: 5 nM IgE-Tb, 25 nM FcεRIα-Y131A-AF488; incubated 2 hours at room temperature; read-out: FRET IC50 range. The protocol: In vitro Biochemical Assay: Protocol for preparation of IgE-Tb reagent 86 nmoles of […]) (Young et al., 1995) at 172 μM in 100 mM NaHCO3, pH 9.5 was added to 1 mg of LanthaScreenTM Amine Reactive Tb Chelate (ThermoFisher catalogue number PV3583) and incubated for 16 hours at 20° C. The material was then buffer exchanged into Phosphate Buffered Saline (being, 137 mM NaCl, 2.7 mM KCl, 10 mM Na2HPO4, 1.8 mM K2HPO4, pH 7.4) and the material quantified and the degree of Tb conjugation determined by measuring the absorption at 280 nm and 343 nm. The integrity of the conjugated material was determined by analytical size exclusion chromatography on a 5200 HR 10×300 column (GE Healthcare). Typical conjugation ratios were 4:1 Tb:IgE-Fc. • Young R J., Owens, […]., Chan C M W., Shi J., Hide […]., Henry A J., Sutton B J., and Gould H J (1995) Protein Engineering 8:193-199 Protocol for preparation of […] reagent […] Oxidation was quenched with the addition of 40 μl of ethanediol and incubation for 60 minutes at 22° C. The protein was buffer exchanged in to conjugation buffer (50 mM NaHCO3, 150 mM NaCl, pH 9.5) and concentrated to 750 μM. 175 nmoles of protein was added to 1 mg of Alexa FluorTM 488 hydrazide (Invitrogen) and incubated for 16 hours at 22° C. […] The protein was buffer exchanged into Phosphate Buffered Saline (being, 137 mM NaCl, 2.7 mM KCl, 10 mM Na2HPO4, 1.8 mM K2HPO4, pH 7.4) and the material quantified and the degree of Alexa FluorTM 488 conjugation determined by measuring the absorption at 280 nm and 495 nm. The integrity of the conjugated material was determined by analytical size exclusion chromatography on a 5200 HR 10×300 column (GE Healthcare). Typical conjugation ratios were 2:1 Alexa FluorTM488: sFcεR1α • Cook J P D., Henry […]., Owens R J., Sutton B J., and Gould H J (1997) Biochemistry 36:15579-15588 The aim was to measure binding of IgE-Tb to receptor, and the inhibition thereof by compounds, using an in vitro Fluorescence Resonance Energy Transfer (FRET) Assay. Reagents FRET reagents used were IgE labelled with Terbium (FRET donor), and soluble IgE receptor FcεRIα with a Y131A mutation, labelled with Alexa FluorTM 488 (FRET acceptor). Unlabelled FcεRIα was also used to generate a background control. The assay buffer consisted of 20 mM Tris pH7.2, 150 mM NaCl, and 0.002% Tween, 1% DMSO. Assay Reaction For most of the examples the assay was conducted according to the following: Each assay reaction was conducted in a volume of 25 μl in a 384-well half-volume plate. 10 point compound serial dilutions (3-fold) were generated in DMSO at a concentration of ×50 that of the final assay concentration (FAC). Compound solutions were then prepared by IgE-Tb diluting 10-fold in assay buffer. For the assay, 5 μl of diluted compound was added to 10 μl of IgE-Tb, followed by addition of 10111 FcεRIα-Y131A-AF488. FRET reagents FACs were 5 nM IgE-Tb, 25 nM FcεRIα-Y131A-AF488. Usually the top FAC of compound in the assay was 10 μM. The final DMSO concentration was 2%. The minimum signal (MIN) was measured by adding 5 μl unlabelled FcεRIα at 1 μM (FAC=200 nM) to the FRET reagents. The maximum FRET signal (MAX) was measured in wells containing FRET reagents but no compound. The assay was incubated for 2 hours at room temperature, protected from light and evaporation, and with gentle agitation. FRET Measurement Measurement of FRET for each well was carried out by exciting at 330 nm and measuring emission at 495/520 nm using an Envision plate reader (Perkin Elmer). FRET ratio was calculated as follows: Emission at 520/Emission at 495×1000. The FRET ratio was used for the data analysis. Data Analysis Z' was calculated as follows (σ=standard deviation and μ=mean): 1-((3×σMAX)+(3×σMIN))/(μMAX-/μMIN) Z' above 0.5 was considered a good assay. Background signal (MIN) was subtracted from all wells. Using the background subtracted values, the percent inhibition by compound in each test-well was calculated as follows: 100-Test-well FRET ratio/MAX FRET ratio×100. […]

This note sets out measurements from patent publication US12410161B2, “Tetrahydrobenzo-quinoline sulfonamides derivative compounds” (UCB Biopharma SRL, priority 2019, dated 2025).

T2 sequence (P0DOX4 224-547 N265Q/N371Q limits assumed): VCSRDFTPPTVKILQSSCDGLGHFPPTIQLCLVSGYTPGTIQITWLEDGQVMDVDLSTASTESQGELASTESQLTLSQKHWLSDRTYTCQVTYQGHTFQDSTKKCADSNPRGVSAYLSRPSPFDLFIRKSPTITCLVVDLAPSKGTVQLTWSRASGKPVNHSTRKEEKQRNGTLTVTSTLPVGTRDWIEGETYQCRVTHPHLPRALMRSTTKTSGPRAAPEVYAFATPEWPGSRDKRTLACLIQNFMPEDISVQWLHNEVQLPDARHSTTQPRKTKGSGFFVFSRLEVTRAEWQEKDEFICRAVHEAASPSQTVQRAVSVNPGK
T1 sequence (P01854 whole entry N146Q/N252Q, the tested form may be a part): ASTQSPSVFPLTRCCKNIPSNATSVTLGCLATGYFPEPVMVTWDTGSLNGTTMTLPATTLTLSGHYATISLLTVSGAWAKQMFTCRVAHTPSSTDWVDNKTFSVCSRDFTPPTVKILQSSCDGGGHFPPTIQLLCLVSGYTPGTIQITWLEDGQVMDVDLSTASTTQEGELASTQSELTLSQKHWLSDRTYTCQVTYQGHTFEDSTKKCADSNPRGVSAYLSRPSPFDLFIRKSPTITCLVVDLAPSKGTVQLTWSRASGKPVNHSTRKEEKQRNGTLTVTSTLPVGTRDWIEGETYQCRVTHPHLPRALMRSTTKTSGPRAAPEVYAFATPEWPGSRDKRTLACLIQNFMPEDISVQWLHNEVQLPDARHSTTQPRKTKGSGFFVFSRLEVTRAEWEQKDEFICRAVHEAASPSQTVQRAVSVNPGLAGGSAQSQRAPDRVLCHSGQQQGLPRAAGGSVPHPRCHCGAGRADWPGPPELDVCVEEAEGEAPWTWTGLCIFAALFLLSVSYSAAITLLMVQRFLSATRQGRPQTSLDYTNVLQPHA

Take `CC(C)CNS(=O)(=O)c1c2c(cc3oc(C4CC4)nc13)CCC(n1cnnc1Nc1cc(C(F)F)nn1C)C2` (stereo not shown) [Example 9, 2-cyclopropyl-6-[3-[[5-(difluoromethyl)-2-methylpyrazol-3-yl]amino]-1,2,4-triazol-4-yl]-N-(2-methylpropyl)-5,6,7,8-tetrahydrobenzo[f][1,3]benzoxazole-4-sulfonamide]: in test [1], the IC50 was 50 to 100 nM.

With `CC(C)CNS(=O)(=O)c1c2c(cc3c1NC(C1CC1)=NO3)CCCC2` [Example 10, 3-cyclopropyl-N-isobutyl-6,7,8,9-tetrahydro-4H-benzo[g][1,2,4]benzoxadiazine-5-sulfonamide], the IC50 in test [1] lay within 50 to 100 nM.

For the molecule `Cc1cc(Nc2nncn2C2CCc3c(cc4cnc(C5CC5)cc4c3S(=O)(=O)NCC(C)(C)F)C2)n(C)n1` (stereo not shown) [Example 23, 3-cyclopropyl-8-[3-[(2,5-dimethylpyrazol-3-yl)amino]-1,2,4-triazol-4-yl]-N-(2-fluoro-2-methylpropyl)-6,7,8,9-tetrahydrobenzo[g]isoquinoline-5-sulfonamide], the IC50 in test [2] lay within 100 to 2000 nM.

Regarding `Cc1cc(-n2cnnc2NC2CCc3c(cc4cnc(C5CC5)cc4c3S(=O)(=O)NCC(C)(C)F)C2)n(C)n1` (stereo not shown) [Example 24, 3-cyclopropyl-8-[[4-(2,5-dimethylpyrazol-3-yl)-1,2,4-triazol-3-yl]amino]-N-(2-fluoro-2-methyl-propyl)-6,7,8,9-tetrahydrobenzo[g]isoquinoline-5-sulfonamide formic acid], the IC50 in test [2] lay within 100 to 2000 nM.
